Measurements reported in patent US10301325B2, “Quinoline derivative, and pharmaceutical composition, preparation method and use thereof” (SHANGHAI HAIJU BIOLOGICAL TECHNOLOGY CO., LTD., priority 2015, dated 2019).

Experiments:
[1] = target: c-Met kinase (Homo sapiens, UniProt P08581); assay: c-Met kinase activity assay (HTRF); type: biochemical; conditions: c-Met kinase from Carna Biosciences, read-out: IC50 (c-Met/BIO)
Procedure: The inhibitory ability of the compounds of the present invention on c-Met kinase activity was determined by Homogeneous Time-Resolved Fluorescence (HTRF), and was expressed by the median inhibitory concentration IC50 value of the compounds. The method was as follows: a series of compounds with gradient concentration were incubated with a specific concentration of the enzyme solution for 5 minutes at room temperature, after which an appropriate amount of enzyme reaction substrate and ATP were added to start the enzyme reaction process. After 30 minutes, an appropriate amount of stop solution and detection solution were added, and the mixture was incubated for 1 hour. Then, the enzyme activity at specific compound concentrations was measured at wavelengths of 665 nm and 620 nm on Envision 2104 Multilabel Microcell Detector of PerkinElmer Company, and the inhibitory activity of the compound at different concentrations on enzyme activity was calculated, then the result was fitted to calculate the IC50 value. The c-Met kinase used in this embodiment was purchased from Carna Biosciences, the test kit HTRF KinEASE-TK was purchased from Cisbio Bioassays Company, and ATP was purchased from Sigma Aldrich Company.

[2] = test system: human gastric cancer cells SNU-5 with high expression of c-Met; assay: c-Met cell proliferation inhibition test (CCK-8, 72 hours); type: cell-based; conditions: SNU-5 cells
Procedure: The inhibitory activity of the test compound on proliferation of human gastric cancer cells SNU-5 with high expression of c-Met was determined through the following in vitro cell assay, and the activity can be expressed by IC50 value. Specific experimental method can refer to Neru Munshi, Sebastien Jeay, Youzhi Li, et al., ARQ 197, a Novel and Selective Inhibitor of the Human c-Met Receptor Tyrosine Kinase with Antitumor Activity. Mol Cancer Ther 2010; 9:1544-1553, the content of which is incorporated herein by reference in its entirety. The general method is as follows: first, human tumor cells SNU-5 (purchased from the Institute of Biochemistry and Cell Biology) with high expression of c-Met was selected and inoculated on a 96-well culture plate at a suitable cell concentration (e.g., 5000 cells/ml culture medium), then they were diluted with IMDM culture medium containing 2% FBS to form a series of test compound solutions at gradient concentrations (generally 6 to 7 concentrations) and continuously incubated for 72 hours. After 72 hours, the activity of the test compound on inhibiting cell proliferation could be determined using the Cell Counting Kit-8 (CCK-8, purchased from DojinDo) method. The IC50 value can be calculated from the inhibitory values on cell proliferation of the test compound at a series of different concentrations.

c-Met kinase, sequence (P08581 25-1390): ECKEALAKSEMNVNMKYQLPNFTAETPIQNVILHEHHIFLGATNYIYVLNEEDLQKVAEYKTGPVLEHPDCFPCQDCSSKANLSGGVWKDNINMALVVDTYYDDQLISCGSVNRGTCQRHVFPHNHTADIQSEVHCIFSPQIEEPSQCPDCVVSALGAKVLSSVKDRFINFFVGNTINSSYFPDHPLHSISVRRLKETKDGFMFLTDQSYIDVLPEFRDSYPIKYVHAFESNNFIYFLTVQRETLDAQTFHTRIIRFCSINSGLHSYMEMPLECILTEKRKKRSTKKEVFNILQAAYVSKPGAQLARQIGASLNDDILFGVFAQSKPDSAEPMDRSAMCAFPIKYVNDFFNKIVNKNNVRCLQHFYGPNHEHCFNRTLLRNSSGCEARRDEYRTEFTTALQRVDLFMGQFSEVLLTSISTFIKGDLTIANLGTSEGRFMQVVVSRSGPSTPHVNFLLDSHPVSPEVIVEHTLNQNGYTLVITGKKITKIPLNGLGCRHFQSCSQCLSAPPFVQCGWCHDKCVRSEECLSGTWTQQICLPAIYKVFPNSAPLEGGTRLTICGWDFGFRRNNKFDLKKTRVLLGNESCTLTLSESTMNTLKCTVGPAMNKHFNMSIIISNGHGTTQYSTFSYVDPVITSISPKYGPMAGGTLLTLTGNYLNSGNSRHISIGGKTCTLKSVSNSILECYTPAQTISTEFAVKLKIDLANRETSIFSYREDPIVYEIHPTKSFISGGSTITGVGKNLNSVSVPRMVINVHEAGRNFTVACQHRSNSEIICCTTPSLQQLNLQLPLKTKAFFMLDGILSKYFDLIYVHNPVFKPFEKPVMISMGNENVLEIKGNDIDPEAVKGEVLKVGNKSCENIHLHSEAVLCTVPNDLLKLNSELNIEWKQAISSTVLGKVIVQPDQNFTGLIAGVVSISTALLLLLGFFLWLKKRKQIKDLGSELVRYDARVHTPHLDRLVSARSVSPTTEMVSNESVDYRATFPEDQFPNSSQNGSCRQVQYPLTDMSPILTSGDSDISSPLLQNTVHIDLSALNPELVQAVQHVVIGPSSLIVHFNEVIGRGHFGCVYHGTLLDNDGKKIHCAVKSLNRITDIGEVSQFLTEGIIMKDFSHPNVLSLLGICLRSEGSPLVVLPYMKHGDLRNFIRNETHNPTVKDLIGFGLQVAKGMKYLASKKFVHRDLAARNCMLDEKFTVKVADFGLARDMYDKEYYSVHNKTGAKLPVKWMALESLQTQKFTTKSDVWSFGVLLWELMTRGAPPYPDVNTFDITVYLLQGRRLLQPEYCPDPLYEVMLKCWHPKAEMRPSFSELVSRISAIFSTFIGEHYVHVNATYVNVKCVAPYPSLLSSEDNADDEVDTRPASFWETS

Compound | IC50 [1] [nM] | IC50 [2] [nM]
CN1C(=O)COc2c1cnc1cc(F)c(C(F)(F)c3nnc4ccc(-c5cnn(C)c5)nn34)cc21 [Embodiment 1, 9-{difluoro(6-(1-methyl-1H-pyrazol-4-yl)-[1,2,4]triazolo[4,3-b]pyridazin-3-yl)methyl}-8-fluoro-4-methyl-2H-[1,4]oxazino[3,2-c]quinolin-3(4H)-one] | 1 | 1.2
CN1C(=O)COc2c1cnc1cc(F)c(Sc3nnc4ccc(-c5cnn(C)c5)nn34)cc21 [Embodiment 2, 8-fluoro-4-methyl-9-{[6-(1-methyl-1H-pyrazol-4-yl)-[1,2,4]triazolo[4,3-b]pyridazin-3-yl]sulfanyl}-2H-[1,4]oxazino[3,2-c]quinolin-3 (4H)-one] | 2.2 | 2.8
Cn1cc(-c2ccc3nnc(C(F)(F)c4ccc5ncccc5c4)n3n2)cn1 [JNJ-38877605, reference compound] | 4.9 | 4.7
